From patent US20240092799A1, “MNK INHIBITORS” (Hepagene Therapeutics (HK) Limited, priority 2020, published 2024)

Experiments:
MNK1 = MNK1 (Homo sapiens (Human), UniProt Q9BUB5); experiment: MNK Biochemical Enzymatic Assay (ADP-Glo), MNK1 binding assay
Procedure: MNK Biochemical Enzymatic Assay. This protocol establishes the binding assays for MNK1 and MNK2 using ADP-Glo assay. MNK phosphorylates the substrate and converts ATP to ADP, which was detected by Envision and used to reflect the reminding activity of MNK. Reagents and equipment used in the assay are listed below, followed by the protocol.
• a) Add 50 μL compound to 384-well dilution plate • b) Dilute compound 1:3 in succession in DMSO for each column for 10+0 pts (refer to dilution plate map) • c) Transfer 0.1 μL diluted compound solution in each row to 384 assay plate using Echo, each column containing 2 replicates (refer to assay plate map) • d) Add 5 μL enzyme working solution to 384-well assay plate, centrifuge 1000 RPM for 1 min • e) Incubate at 25° C. for 15 min • f) Add 5 μL substrate working solution to initiate reaction • g) Incubate at 25° C. for 60 min • h) Add 10 μL ADP Glo reagent, centrifuge 1000 RPM for 1 min • i) Incubate at 25° C. for 60 min • j) Add 20 μL kinase detection reagent, centrifuge 1000 RPM for 1 min • k) Incubate at 25° C. for 60 min • l) Read on Envision for US LUM as RLU • m) Data analysis: IC50s were determined based on a non-linear regression analysis of data collected.

MNK2 = MNK2 (Homo sapiens (Human), UniProt Q9HBH9); experiment: MNK Biochemical Enzymatic Assay (ADP-Glo), MNK2 binding assay
Procedure, shortened: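 Human MNK1 or MNK2 was preincubated with a 10-point, 1:3 serial dilution of compound for 15 min at 25 °C. Substrate was then added and the reaction ran 60 min at 25 °C. ADP formed was read by ADP-Glo luminescence, and IC50 came from non-linear regression.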

TMD-8 cell p-IF4E = experiment: p-eIF4E Signaling Cellular Assay (CisBio HTRF) in TMD-8 cells; format: cell-based; details: Homo sapiens, TMD8, 40 min, 40 min treatment
Procedure: p-eIF4E Signaling Cellular Assay. Phosphorylated eIF4E is assayed using the CisBio p-Eif4E HTRF assay kit. Reagents and equipment used in the assay are listed below, followed by the protocol.
Cell medium: RPMI 1640+10% FBS+1*PS, TMD-8 were cultured as recommended and assayed in exponential growth phase. • a) Plate 30 μL of cells in 384 white assay plate in appropriate medium and proper cell density (20 k/well) based on Optimization at 37° C. under 5% CO2 atmosphere • b) Dispense 90 nL of compounds diluted in DMSO and treat for 40 min at 37° C. under 5% CO2 atmosphere • c) Remove cell supernatant by flicking the plate • d) Add 16 μL of supplemented lysis buffer (1×) for 30 minutes at RT under shaking • e) Add 4 μL of premixed antibody solutions prepared in the detection buffer. Cover the plate with a plate sealer. Incubate 0/N at RT • f) Read the fluorescence emission at 665 nm and 620 nm on Envision • g) Data analysis • (1) Ratio […] signal is calculated for each well • (2) % Inhibition is calculated as follow:
% inhibition=100−(Signalcmpd-SignalAve_PC)/(SignalAve_VC-SignalAve_PC)×100. • (3) Calculate IC50 and Plot effect-dose curve of cmpds:
Calculate IC50 by fitting % Inhibition values and log of compound concentrations to nonlinear regression (dose response−variable slope) with Graphpad 8.0.
Y=Bottom+(Top−Bottom)/(1+10^((Log IC50−X)*Hill Slope)) • X: log of Inhibitor concentration; Y: % Inhibition.

Sequence of MNK2 (Q9HBH9 whole entry): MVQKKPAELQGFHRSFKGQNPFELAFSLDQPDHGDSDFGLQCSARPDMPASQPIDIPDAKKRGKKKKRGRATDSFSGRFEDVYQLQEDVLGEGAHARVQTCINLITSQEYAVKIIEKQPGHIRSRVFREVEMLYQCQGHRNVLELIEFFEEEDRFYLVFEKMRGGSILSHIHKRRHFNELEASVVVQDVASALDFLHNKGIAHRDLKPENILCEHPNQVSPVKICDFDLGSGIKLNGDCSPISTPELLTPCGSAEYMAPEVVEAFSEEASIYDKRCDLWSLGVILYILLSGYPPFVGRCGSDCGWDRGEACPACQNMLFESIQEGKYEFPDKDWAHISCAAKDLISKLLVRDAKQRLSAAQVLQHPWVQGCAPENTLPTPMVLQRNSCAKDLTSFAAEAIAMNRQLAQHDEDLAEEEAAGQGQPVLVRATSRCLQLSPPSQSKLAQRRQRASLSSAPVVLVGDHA
Sequence of MNK1 (Q9BUB5 other isoform, or with tags, fused parts or gaps isoform Q9BUB5-2): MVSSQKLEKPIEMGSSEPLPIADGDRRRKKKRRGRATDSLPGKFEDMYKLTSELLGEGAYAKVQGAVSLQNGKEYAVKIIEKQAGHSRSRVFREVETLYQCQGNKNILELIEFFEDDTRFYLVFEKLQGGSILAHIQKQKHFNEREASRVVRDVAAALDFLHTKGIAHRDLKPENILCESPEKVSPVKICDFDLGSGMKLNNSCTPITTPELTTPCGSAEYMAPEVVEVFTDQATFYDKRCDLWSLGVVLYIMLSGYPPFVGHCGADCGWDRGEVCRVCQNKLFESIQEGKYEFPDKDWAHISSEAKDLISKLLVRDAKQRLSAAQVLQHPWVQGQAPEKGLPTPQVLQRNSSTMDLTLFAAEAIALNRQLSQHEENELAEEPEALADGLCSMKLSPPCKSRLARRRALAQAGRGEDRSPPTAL

Row | SMILES | IC50 (MNK1) [nM] | IC50 (MNK2) [nM] | IC50 (TMD-8 cell p-IF4E) [nM]
1 | Cc1cc(Nc2cc(N)ncn2)c(=O)n2c1C(=O)N[C@]21C[C@H]2CC[C@@H]1C2 [Compound IIa, (1R,2R,4S)-6′-((6-Aminopyrimidin-4-yl)amino)-8′-methyl-2′H-spiro[bicyclo[2.2.1]heptane-2,3′-imidazo[1,5-a]pyridine]-1′,5′-dione] | 0.1 to 10 | 0.1 to 10 | 
2 | Nc1cc(Nc2c(=O)n3c(c4ccccc24)C(=O)NC32CCCCC2)ncn1 [Compound III, 6′-((6-Aminopyrimidin-4-yl)amino)-2′H-spiro[cyclohexane-1,3′-imidazo[5,1-a]isoquinoline]-1′,5′-dione] | > 1000 | > 1000 | 
3 | O=C1NC2(CCCCC2)c2cc(Nc3ncnc4c3CCN4)sc21 [Compound XXXI, 2′-((6,7-dihydro-5H-pyrrolo[2,3-d]pyrimidin-4-yl)amino)spiro[cyclohexane-1,4′-thieno[2,3-c]pyrrol]-6′(5′H)-one] |  | 0.1 to 10 | 100 to 1000
4 | O=C1NC2(CCCCC2)c2cc(Nc3cc(Nc4ccccn4)ncn3)sc21 [Compound XXIII-C, 2′-((6-(Pyridin-2-ylamino)pyrimidin-4-yl)amino)spiro[cyclohexane-1,4′-thieno[2,3-c]pyrrol]-6′(5′H)-one] |  | 0.1 to 10 | 10 to 100
5 | CCN1CCN(c2ccc(Nc3cc(Nc4cc(C)c5c([n+]4[O-])C4(CCCCC4)NC5=O)ncn3)nc2)CC1 [Compound XXIX-AAO, 2′-[(6-{[5-(4-ethylpiperazin-1-yl)pyridin-2-yl]amino}pyrimidin-4-yl)amino]-4′-methyl-5′-oxo-6′H-spiro[cyclohexane-1,7′-pyrrolo[3,4-b]pyridin]-1′-ium-1′-olate] |  | 0.1 to 10 | 0.1 to 10
6 | Cc1cc(Nc2cc(N[C@@H]3COC[C@H]3O)ncn2)[n+]([O-])c2c1C(=O)NC21CCCCC1 (relative stereo) [Compound XXIX-AE, 2′-((6-((trans-4-hydroxytetrahydrofuran-3-yl)amino)pyrimidin-4-yl)amino)-4′-methyl-5′-oxo-5′,6′-dihydrospiro[cyclohexane-1,7′-pyrrolo[3,4-b]pyridine] 1′-oxide] |  | 0.1 to 10 | 10 to 100
7 | Cc1cc(Nc2cc(Nc3ccc(N4CCOCC4)cn3)ncn2)[n+]([O-])c2c1C(=O)NC21CCCCC1 [Compound XXIX-AAJ, 4′-methyl-2′-((6-((5-morpholinopyridin-2-yl)amino)pyrimidin-4-yl)amino)-5′-oxo-5′,6′-dihydrospiro[cyclohexane-1,7′-pyrrolo[3,4-b]pyridine] 1′-oxide] |  | 0.1 to 10 | 0.1 to 10
8 | O=C1NC2(CCCCC2)c2cc(Nc3ncnc4[nH]c(C5CC5)cc34)sc21 [Compound XXXI-A, 2′-((6-cyclopropyl-7H-pyrrolo[2,3-d]pyrimidin-4-yl)amino)spiro[cyclohexane-1,4′-thieno[2,3-c]pyrrol]-6′(5′H)-one] |  | 0.1 to 10 | 0.1 to 10
9 | Cn1cc(Nc2cc(Nc3cc4c(s3)C(=O)NC43CCCCC3)ncn2)cn1 [Compound XXIV-K, 2′-((6-((1-methyl-1H-pyrazol-4-yl)amino)pyrimidin-4-yl)amino)spiro[cyclohexane-1,4′-thieno[2,3-c]pyrrol]-6′(5′H)-one] |  | 0.1 to 10 | 100 to 1000
10 | O=C1NC2(CCCCC2)c2cc(Nc3cc(NC(=O)C4CCCC4)ncn3)sc21 [Compound XX-D, N-(6-((6′-Oxo-5′,6′-dihydrospiro[cyclohexane-1,4′-thieno[2,3-c]pyrrol]-2′-yl)amino)pyrimidin-4-yl)cyclopentanecarboxamide] |  | 0.1 to 10 | 100 to 1000
11 | O=C1NC2(CCCCC2)c2cc(Nc3cc(N[C@H]4CCOC4)ncn3)sc21 [Compound XXIV-C, (S)-2′-((6-((tetrahydrofuran-3-yl)amino)pyrimidin-4-yl)amino)spiro[cyclohexane-1,4′-thieno[2,3-c]pyrrol]-6′(5′H)-one] |  | 0.1 to 10 | 10 to 100
12 | Cc1cc(Nc2cc(Nc3ccc(N4CCCCC4)cn3)ncn2)[n+]([O-])c2c1C(=O)NC21CCCCC1 [Compound XXIX-AAM, 4′-methyl-5′-oxo-2′-((6-((5-(piperidin-1-yl)pyridin-2-yl)amino)pyrimidin-4-yl)amino)-5′,6′-dihydrospiro[cyclohexane-1,7′-pyrrolo[3,4-b]pyridine] 1′-oxide] |  | 0.1 to 10 | 0.1 to 10
13 | O=C1NC2(CCCCC2)c2cc(Nc3cc(NC4CCCC4)ncn3)sc21 [Compound XXIII-N, 2′-((6-(Cyclopentylamino)pyrimidin-4-yl)amino)spiro[cyclohexane-1,4′-thieno[2,3-c]pyrrol]-6′(5′H)-one] |  | 10 to 100 | 10 to 100
14 | Cc1cc(Nc2cc(Nc3ccn(C(C)C)n3)ncn2)[n+]([O-])c2c1C(=O)NC21CCCCC1 [Compound XXIX-AAQ, 2′-((6-((1-isopropyl-1H-pyrazol-3-yl)amino)pyrimidin-4-yl)amino)-4′-methyl-5′-oxo-5′,6′-dihydrospiro[cyclohexane-1,7′-pyrrolo[3,4-b]pyridine] 1′-oxide] |  | 0.1 to 10 | 0.1 to 10
15 | Cc1cc(Nc2cc(Nc3ccn(C(F)(F)F)n3)ncn2)[n+]([O-])c2c1C(=O)NC21CCCCC1 [Compound XXIX-AF, 4′-methyl-5′-oxo-2′-[(6-{[1-(trifluoromethyl)pyrazol-3-yl]amino}pyrimidin-4-yl)amino]-6′H-spiro[cyclohexane-1,7′-pyrrolo[3,4-b]pyridin]-1′-ium-1′-olate] |  | 0.1 to 10 | 0.1 to 10
16 | O=C1NC2(CCCCC2)c2nc(Nc3cc(N[C@H]4CCOC4)ncn3)sc21 [Compound XXVIII, (S)-2′-((6-((tetrahydrofuran-3-yl)amino)pyrimidin-4-yl)amino)spiro[cyclohexane-1,4′-pyrrolo[3,4-d]thiazol]-6′(5′H)-one] |  | 0.1 to 10 | 10 to 100
17 | O=C1NC2(CCCCC2)c2cc(Nc3ncnc4[nH]ccc34)sc21 [Compound XVII-A, 2′-((7H-pyrrolo[2,3-d]pyrimidin-4-yl)amino)spiro[cyclohexane-1,4′-thieno[2,3-c]pyrrol]-6′(5′H)-one] |  | 0.1 to 10 | 10 to 100
18 | COc1c(N)ncnc1Nc1cc(C)c2c([n+]1[O-])C1(CCCCC1)NC2=O [Compound XXIX-Z, 2′-((6-amino-5-methoxypyrimidin-4-yl)amino)-4′-methyl-5′-oxo-5′,6′-dihydrospiro[cyclohexane-1,7′-pyrrolo[3,4-b]pyridine] 1′-oxide] |  | 0.1 to 10 | 0.1 to 10
19 | Cc1cc(Nc2cc(N[C@H]3C[C@@H](O)C3)ncn2)[n+]([O-])c2c1C(=O)NC21CCCCC1 [Compound XXIX-AP, 2′-((6-(((cis)-3-hydroxycyclobutyl)amino)pyrimidin-4-yl)amino)-4′-methyl-5′-oxo-5′,6′-dihydrospiro[cyclohexane-1,7′-pyrrolo[3,4-b]pyridine] 1′-oxide] |  | 0.1 to 10 | 10 to 100
20 | Cn1ccc(Nc2cc(Nc3cc4c(s3)C(=O)NC43CCCCC3)ncn2)n1 [Compound XXIII-P, 2′-((6-((1-methyl-1H-pyrazol-3-yl)amino)pyrimidin-4-yl)amino)spiro[cyclohexane-1,4′-thieno[2,3-c]pyrrol]-6′(5′H)-one] |  | 0.1 to 10 | 10 to 100
21 | Cc1cc(Nc2cc(Nc3ccccc3)ncn2)[n+]([O-])c2c1C(=O)NC21CCCCC1 [Compound XXIX-AH, 4′-methyl-5′-oxo-2′-((6-(phenylamino)pyrimidin-4-yl)amino)-5′,6′-dihydrospiro[cyclohexane-1,7′-pyrrolo[3,4-b]pyridine] 1′-oxide] |  | 0.1 to 10 | 0.1 to 10
22 | Cc1cc(Nc2cc(Nc3ccon3)ncn2)[n+]([O-])c2c1C(=O)NC21CCCCC1 [Compound XXIX-AAD, 2′-((6-(isoxazol-3-ylamino)pyrimidin-4-yl)amino)-4′-methyl-5′-oxo-5′,6′-dihydrospiro[cyclohexane-1,7′-pyrrolo[3,4-b]pyridine] 1′-oxide] |  | 0.1 to 10 | 0.1 to 10
